According to patent US6699868B2, “Pyridazinyl phenyl hydrazones useful against congestive heart failure” (Orion Corporation, priority 2000, dated 2004):
Read-outs that look alike come from different tables or passages of the source.

Columns and labels:
isolated heart = test: Effect in left ventricular pressure derivatives in isolated heart (Langendorff); conditions: isolated guinea-pig heart, constant pressure 50 mmHg, 37° C., read-out: EC50 on maximal positive derivative of the left ventricular systolic pressure
Description: Experiment 2. Effect in left ventricular pressure derivatives in isolated heart
After sacrification the heart of a guinea-pig was rapidly excised and rinsed in oxygenated perfusion buffer. A cannula was inserted into the aorta and secured with a ligature. Retrograde perfusion began as soon as the heart was placed in a thermostatically controlled moist chamber of the Langendorff apparatus (Hugo Sachs Elektronik, KG). Modified Tyrode solution (37° C.), equilibrated in a thermostatically controlled bulb oxygenator with carbogen (95% O2 and 5% CO2), was used as a perfusion buffer. The composition of the Tyrode solution was (in mM): NaCl 135; MgCl2×6H2O 1; KCl 5; CaCl2×2H2O 2; NaHCO3 15; Na2HPO4×2H2O 1; glucose 10; pH 7.3-7.4. The perfusion buffer was delivered at the top of the oxygenator by a pump and driven automatically by its controller. Subsequently, the buffer was delivered into the bulbs of the oxygenator chamber by a rotating disk. It was dispersed by making a thin fluid film on a large inner oxygenator surface in O2/CO2 atmosphere leading to saturation of the perfusate with oxygen (partial pressure 660 mmHg at 37° C.).
The experiments were carried out under constant pressure condition (50 mmHg). After a short prestabilization (10 min) a latex balloon (size 4) was carefully placed into the left ventricle through the left pulmonary vein and the left atrium. The latex balloon was attached to a stainless-steel cannula coupled with a pressure transducer. The latex balloon, the cannula and the chamber of the pressure transducer were carefully filled with ethylene glycol/water (1:1) mixture avoiding any air-bubble. The isovolumetric left ventricular pressure was recorded through the pressure transducer. At the beginning of the experiment, the volume of the balloon was adjusted to obtain a diastolic pressure of approximately 5 mmHg. Before starting the experiment the heart was allowed to stabilise further for 30-50 min. The systolic and end-diastolic left ventricular pressures were recorded for calculating the maximal positive and negative derivatives of the left ventricular pressure.

skinned cardiac fiber = test: Calcium sensitizing effect in skinned cardiac fiber; assay type: cell-based, guinea-pig; conditions: test compound 0.1-10 μM added cumulatively, calcium (pCa 6.0 or 6.2)-induced tension, room temperature; for Emax: Cavia porcellus, maximum effect, read-out: Change in force/ % change from control (maximum calcium sensitizing effect in skinned fiber)
Description: Experiment 1. Calcium sensitizing effect in skinned cardiac fiber
The heart of a guinea-pig was excised and perfused with ice-cold saponin (125 mg/l) skinning solution consisting of (mM): K^+-acetate 74.7. EGTA-Na2 10, MgSO4 5.4, ATP-Na2 4, MOPS 20, pH 7.0 (by 1 M KOH). Left ventricular papillary muscle was dissected and sonicated at 10 Watt for 60 s. The distance between ultrasound probe and the papillary muscle was 10 mm. The fibres (<200 μm in diameter) were dissected from the surface of sonicated papillary muscles in the same solution.
The fibre was glued between platinum wires, one attached to an isometric force transducer (type AE-801,SensoNor, Horten, Norway) and another to a micro manipulator. The fibre was relaxed in a solution consisting of (mM): EGTA-Na2 10, MgSO4 5.4, ATP-Na2 4, MOPS 20. The pH of the solution was adjusted to 7.0 and ionic strength to 0.16 M by the addition of KOH and K^+-acetate. Creatine kinase and creatine phosphate were not added as an ATP generating system because the developed tension was well sustained for the time required for experiment. The calculations for ionic strength and for free calcium (pCa 7.0-6.2) were performed using a suitable program. The fibres were stretched in relaxing solution until resting tension was just noticeable. When the calcium (pCa 6.0 or 6.2)-induced tension had reached steady state the test compound (final concentrations 0.1, 0.3, 1, 3,and 10 μM) was cumulatively added into the solution at 6 min intervals. All the experiments were carried out with fresh fibres at normal room temperature.

| Structure (SMILES) | EC50 (isolated heart; Cavia porcellus) [nM] | melting point [°C] | EC50 (isolated heart) [nM] | Emax (skinned cardiac fiber) [%] | Change in force/ % change from control (maximum calcium sensitizing effect in skinned fiber) (skinned cardiac fiber) [% change from control] |
| --- | --- | --- | --- | --- | --- |
| CC1CC(=O)NN=C1c1ccc(NN=C(c2ccc(O)cc2O)c2ccc(O)cc2O)cc1 (stereo not drawn) [Example 34, 6-(4-{N′-[Bis-(2,4-dihydroxy-phenyl)-methylene]-hydrazino}-phenyl)-5-methyl-4,5-dihydro-2H-pyridazin-3-one] | 110 | – | – | 52.8 | – |
| COc1c(O)ccc(C=NNc2ccc(C3=NNC(=O)C[C@H]3C)cc2)c1[N+](=O)[O-] [Example 2, (R)-6-{4-[N′-(4-Hydroxy-3-methoxy-2-nitro-benzylidene)-hydrazino]-phenyl}-5-methyl-4,5-dihydro-2H-pyridazin-3-one] | 20 | – | – | 207 | – |
| CC(=NNc1ccc(C2=NNC(=O)CC2C)cc1)c1ccc(O)c(C)c1O (stereo not drawn) [Example 49, 6-(4-{N-[1-(2,4-Dihydroxy-3-methylphenyl)ethylidene]hydrazino}phenyl)-5-methyl-4,5-dihydro-2H-pyridazin-3-one] | – | – | 250 | – | 28.7 |
| CC(=NNc1ccc(C2=NNC(=O)CC2C)cc1)c1ccc(O)cc1O (stereo not drawn) [Example 33, 6-(4-{N′-[1-(2,4-Dihydroxy-phenyl)-ethylidene]-hydrazino}-phenyl)-5-methyl-4,5-dihydro-2H-pyridazin-3-one] | 400 | 259 to 261 | – | 55.2 | – |
| CCc1c(O)ccc(C=NNc2ccc(C3=NNC(=O)CC3C)cc2)c1O (stereo not drawn) [Example 40, 6-{4-[N′-(3-Ethyl-2,4-dihydroxy-benzylidene)-hydrazino]-phenyl}-5-methyl-4,5-dihydro-2H-pyridazin-3-one] | 710 | 238 to 240 | – | 100 | – |
| CC(=NNc1ccc(C2=NNC(=O)CC2C)cc1)c1cc(O)ccc1O (stereo not drawn) [Example 35, 6-(4-{N′-[1-(2,5-Dihydroxy-phenyl)-ethylidene]-hydrazino}-phenyl)-5-methyl-4,5-dihydro-2H-pyridazin-3-one] | 310 | 279 to 284 | – | 25.4 | – |
| Cc1cc(=O)[nH]nc1-c1ccc(NN=Cc2ccc(O)cc2O)cc1 [Example 21, 6-{4-[N′-(2,4-Dihydroxybenzylidene)hydrazino]phenyl}-5-methyl-2H-pyridazin-3-one] | 3040 | 303 to 310 | – | 44.2 | – |
| CC(=NNc1ccc(C2=NNC(=O)CC2C)cc1)c1cc(O)cc(O)c1 (stereo not drawn) [Example 13, 6-(4-{N′-[1-(3,5-Dihydroxy-phenyl)-ethylidene]-hydrazino}-phenyl)-5-methyl-4,5-dihydro-2H-pyridazin-3-one] | – | 162 to 166 | – | – | – |
| CC1CC(=O)NN=C1c1ccc(NN=Cc2ccc(O)cc2)cc1 (stereo not drawn) [Example 61, 6-{4-[N′-(4-Hydroxy-benzylidene)-hydrazino]-phenyl}-5-methyl-4,5-dihydro-2H-pyridazin-3-one] | – | 258 to 261 | – | – | – |
| COc1c(O)ccc(C(C)=NNc2ccc(C3=NNC(=O)CC3C)cc2)c1[N+](=O)[O-] (stereo not drawn) [Example 67, 6-(4-{N′-[1-(4-Hydroxy-3-methoxy-2-nitro-phenyl)-ethylidene]-hydrazino}-phenyl)-5-methyl-4,5-dihydro-2H-pyridazin-3-one] | – | 251 to 254 | – | – | – |

The next lines start with results.

| EC50 (isolated heart; Cavia porcellus) [nM] | melting point [°C] | EC50 (isolated heart) [nM] | Structure (SMILES) | Emax (skinned cardiac fiber) [%] | Change in force/ % change from control (maximum calcium sensitizing effect in skinned fiber) (skinned cardiac fiber) [% change from control] |
| --- | --- | --- | --- | --- | --- |
| 2470 | – | – | CC(=NNc1ccc(-c2n[nH]c(=O)cc2C)cc1)c1ccc(O)cc1O [Example 23, 6-{4-{N′-[1-(2,4-Dihydroxyphenyl)ethylidene]hydrazino}phenyl}-5-methyl-2H-pyridazin-3-one] | 39.9 | – |
| – | 266 to 269 | – | Cc1cc(=O)n(C)nc1-c1ccc(NN=Cc2ccc(O)cc2O)cc1 [Example 24, 6-{4-[N′-(2,4-Dihydroxybenzylidene)hydrazino]phenyl}-2,5-dimethyl-2H-pyridazin-3-one] | 42 | – |
| – | 244 to 248 | – | CC(=NNc1ccc(C2=NNC(=O)CC2C)cc1)c1ccc(O)c(C)c1O (stereo not drawn) [Example 38, 6-(4-{N′-[1-(2,4-Dihydroxy-3-methyl-phenyl)-ethylidene]-hydrazino}-phenyl)-5-methyl-4,5-dihydro-2H-pyridazin-3-one] | 32.2 | – |
| 1750 | 160 to 170 | – | CCCc1c(O)ccc(C=NNc2ccc(C3=NNC(=O)CC3C)cc2)c1O (stereo not drawn) [Example 43, 6-{4-[N′-(2,4-Dihydroxy-3-propyl-benzylidene)-hydrazino]-phenyl}-5-methyl-4,5-dihydro-2H-pyridazin-3-one] | 39 | – |
| – | 145 to 155 | – | CC(=O)Nc1ccc(C(C)=NNc2ccc(C3=NNC(=O)CC3C)cc2)cc1 (stereo not drawn) [Example 37, N-[4-(1-{[4-(4-Methyl-6-oxo-1,4,5,6-tetrahydro-pyridazin-3-yl)-phenyl]-hydrazono}-ethyl)-phenyl]-acetamide] | 21.7 | – |
| 310 | 235 to 239 | – | COc1c(O)ccc(C=NNc2ccc(C3=NNC(=O)CC3C)cc2)c1[N+](=O)[O-] (stereo not drawn) [Example 6, 6-{4-[N′-(4-Hydroxy-3-methoxy-2-nitro-benzylidene)-hydrazino]-phenyl}-5-methyl-4,5-dihydro-2H-pyridazin-3-one] | 32.9 | – |
| – | 264 to 268 | – | COc1c(O)ccc(C=NNc2ccc(-c3n[nH]c(=O)cc3C)cc2)c1[N+](=O)[O-] [Example 22, 6-{4-[N′-(4-Hydroxy-3-methoxy-2-nitrobenzylidene)hydrazino]phenyl}-5-methyl-2H-pyridazin-3-one] | – | – |
